{"source": "patent US9302999B2", "about": "“Substituted triazoles as herbicides” (E. I. DU PONT DE NEMOURS AND COMPANY, priority 2012, dated 2016)", "assay_type_in_all_cases": "in vivo", "key": {"[1]": {"tested_on": "morningglory (Ipomoea spp.)", "assay": "Test A pre-/postemergence: morningglory", "settings": "Ipomoea, 240 h; for pest or weed control at 125 g/ha: 125 g ai/ha; for pest or weed control at 500 g/ha: 500 g ai/ha", "in_short": "(§1)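 Whole-plant greenhouse assay in loam/sand. Preemergence directed soil spray plus simultaneous postemergence spray (one- to two-leaf stage, 2–10 cm). Rated visually ~10 days later, 0 = no effect, 100 = complete control.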"}, "[2]": {"tested_on": "ryegrass, Italian (Italian ryegrass, Lolium multiflorum)", "assay": "Test C pre-/postemergence: ryegrass, Italian", "in_short": "(§2)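 Preemergence on seeds in loam/sand, postemergence on 2–18 cm (1–4-leaf) plants in peat-based medium; compounds in non-phytotoxic solvent with surfactant. After 13–15 days in greenhouse, visual rating versus controls, 0 (no effect) to 100 (complete control).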"}, "[3]": {"tested_on": "barnyardgrass (Echinochloa crus-galli)", "assay": "Test A pre-/postemergence: barnyardgrass", "settings": "Echinochloa crus-galli, 240 h; for pest or weed control at 125 g/ha: 125 g ai/ha; for pest or weed control at 500 g/ha: 500 g ai/ha", "in_short": "as §1"}, "[4]": {"tested_on": "blackgrass (Alopecurus myosuroides)", "assay": "Test C pre-/postemergence: blackgrass", "in_short": "as §2"}, "[5]": {"tested_on": "large crabgrass (Digitaria sanguinalis)", "assay": "Test C pre-/postemergence: large crabgrass", "in_short": "as §2"}, "[6]": {"tested_on": "pigweed (Amaranthus retroflexus)", "assay": "Test C pre-/postemergence: pigweed", "in_short": "as §2"}, "[7]": {"tested_on": "nutsedge, yellow (yellow nutsedge, Cyperus esculentus)", "assay": "Test C pre-/postemergence: nutsedge, yellow", "in_short": "as §2"}, "[8]": {"tested_on": "soybean (Glycine max)", "assay": "Test C pre-/postemergence: soybean", "in_short": "as §2"}, "[9]": {"tested_on": "corn (Zea mays)", "assay": "Test A pre-/postemergence: corn", "settings": "Zea mays, 240 h; for Corn plant response rating (crop injury, 0 = no effect, 100 = complete kill) at 125 g/ha: 125 g ai/ha", "in_short": "as §1"}, "[10]": {"tested_on": "johnsongrass (Sorghum halepense)", "assay": "Test C pre-/postemergence: johnsongrass", "in_short": "as §2"}, "[11]": {"tested_on": "wheat (Triticum aestivum)", "assay": "Test A pre-/postemergence: wheat", "settings": "Triticum aestivum, 240 h; for plant injury at 125 g/ha: 125 g ai/ha; for plant injury at 500 g/ha: 500 g ai/ha", "in_short": "as §1"}, "[12]": {"settings": "Postemergence, 31 g ai/ha, scale 0 to 100 (0 no effect, 100 complete control)"}, "[13]": {"settings": "Postemergence, 62 g ai/ha, scale 0 to 100 (0 no effect, 100 complete control)"}, "[14]": {"settings": "Postemergence, 125 g ai/ha, scale 0 to 100, 0 no effect, 100 complete control"}, "[15]": {"settings": "Postemergence, 250 g ai/ha, scale 0 to 100 (0 no effect, 100 complete control)"}, "[16]": {"settings": "Preemergence, 31 g ai/ha, scale 0 (no effect) to 100 (complete control)"}, "[17]": {"settings": "Preemergence, 62 g ai/ha, scale 0 to 100, 0 no effect, 100 complete control"}, "[18]": {"settings": "Preemergence, 125 g ai/ha, scale 0 to 100, 0 no effect, 100 complete control"}, "[19]": {"settings": "Preemergence, 250 g ai/ha, scale 0 to 100, 0 no effect, 100 complete control"}, "[20]": {"settings": "Postemergence, 250 g ai/ha, scale 0 to 100"}}, "note": "Where two headings read alike, the source gives them in different places.", "data": [{"smiles": "CCOc1nn(-c2ccc(F)cc2)nc1Cc1ccnc(C(F)(F)F)c1", "note": "[Compound 196, 4-[[5-ethoxy-2-(4-fluorophenyl)-2H-1,2,3-triazol-4-yl]methyl]-2-(trifluoromethyl)pyridine]", "values": [{"measurement": "pest or weed control at 125 g/ha", "setting": "[1]; post-emergence, Postemergence, 0 to 100 scale, 0 is no effect, 100 is complete control, read-out: Plant response rating, Morningglory", "result": 100, "unit": "%"}, {"measurement": "pest or weed control at 500 g/ha", "setting": "[1]; post-emergence, Postemergence, 0 to 100 scale, 0 is no effect, 100 is complete control, read-out: Morningglory plant response rating", "result": 100, "unit": "%"}, {"measurement": "pest or weed control at 125 g/ha", "setting": "[1]; pre-emergence, Preemergence, 0 to 100 scale where 0 is no effect and 100 is complete control, read-out: Plant response rating, Morningglory", "result": 60, "unit": "%"}, {"measurement": "pest or weed control at 500 g/ha", "setting": "[1]; pre-emergence, Preemergence, 0 to 100 scale (0 no effect, 100 complete control), read-out: Plant response rating, Morningglory", "result": 90, "unit": "%"}, {"measurement": "Plant response rating, Ryegrass, Italian", "setting": "[2]; [12]", "result": 35}, {"measurement": "Plant response rating, Ryegrass, Italian", "setting": "[2]; [13]", "result": 60}, {"measurement": "Plant response rating, Ryegrass, Italian", "setting": "[2]; [14]", "result": 85}, {"measurement": "Plant response rating, Ryegrass, Italian", "setting": "[2]; [15]", "result": 85}, {"measurement": "Plant response rating, Ryegrass, Italian", "setting": "[2]; [16]", "result": 80}, {"measurement": "Plant response rating, Ryegrass, Italian", "setting": "[2]; [17]", "result": 90}, {"measurement": "Plant response rating, Ryegrass, Italian", "setting": "[2]; [18]", "result": 90}, {"measurement": "Plant response rating, Ryegrass, Italian", "setting": "[2]; [19]", "result": 90}, {"measurement": "pest or weed control at 125 g/ha", "setting": "[3]; post-emergence, Postemergence, 0 to 100 scale, 0 is no effect, 100 is complete control, read-out: Plant response rating, Barnyardgrass", "result": 80, "unit": "%"}, {"measurement": "pest or weed control at 500 g/ha", "setting": "[3]; post-emergence, Postemergence, 0 to 100 scale, 0 is no effect, 100 is complete control, read-out: Barnyardgrass plant response rating", "result": 90, "unit": "%"}, {"measurement": "pest or weed control at 125 g/ha", "setting": "[3]; pre-emergence, Preemergence, 0 to 100 scale where 0 is no effect and 100 is complete control, read-out: Plant response rating, Barnyardgrass", "result": 100, "unit": "%"}, {"measurement": "pest or weed control at 500 g/ha", "setting": "[3]; pre-emergence, Preemergence, 0 to 100 scale (0 no effect, 100 complete control), read-out: Plant response rating, Barnyardgrass", "result": 100, "unit": "%"}, {"measurement": "Plant response rating, Blackgrass", "setting": "[4]; [12]", "result": 70}, {"measurement": "Plant response rating, Blackgrass", "setting": "[4]; [13]", "result": 80}, {"measurement": "Plant response rating, Blackgrass", "setting": "[4]; [14]", "result": 80}, {"measurement": "Plant response rating, Blackgrass", "setting": "[4]; [20]", "result": 80}, {"measurement": "Plant response rating, Blackgrass", "setting": "[4]; [16]", "result": 90}, {"measurement": "Plant response rating, Blackgrass", "setting": "[4]; [17]", "result": 90}, {"measurement": "Plant response rating, Blackgrass", "setting": "[4]; [18]", "result": 90}, {"measurement": "Plant response rating, Blackgrass", "setting": "[4]; [19]", "result": 90}, {"measurement": "Plant response rating, Crabgrass, Large", "setting": "[5]; [12]", "result": 80}, {"measurement": "Plant response rating, Crabgrass, Large", "setting": "[5]; [13]", "result": 85}, {"measurement": "Plant response rating, Crabgrass, Large", "setting": "[5]; [14]", "result": 85}, {"measurement": "Plant response rating, Crabgrass, Large", "setting": "[5]; [20]", "result": 95}, {"measurement": "Plant response rating, Crabgrass, Large", "setting": "[5]; [16]", "result": 100}, {"measurement": "Plant response rating, Crabgrass, Large", "setting": "[5]; [17]", "result": 100}, {"measurement": "Plant response rating, Crabgrass, Large", "setting": "[5]; [18]", "result": 100}, {"measurement": "Plant response rating, Crabgrass, Large", "setting": "[5]; [19]", "result": 100}, {"measurement": "Plant response rating, Pigweed", "setting": "[6]; [12]", "result": 98}, {"measurement": "Plant response rating, Pigweed", "setting": "[6]; [13]", "result": 98}, {"measurement": "Plant response rating, Pigweed", "setting": "[6]; [14]", "result": 98}, {"measurement": "Plant response rating, Pigweed", "setting": "[6]; [15]", "result": 98}, {"measurement": "Plant response rating, Pigweed", "setting": "[6]; [16]", "result": 95}, {"measurement": "Plant response rating, Pigweed", "setting": "[6]; [17]", "result": 98}, {"measurement": "Plant response rating, Pigweed", "setting": "[6]; [18]", "result": 98}, {"measurement": "Plant response rating, Pigweed", "setting": "[6]; [19]", "result": 98}, {"measurement": "Plant response rating, Nutsedge, Yellow", "setting": "[7]; [12]", "result": 10}, {"measurement": "Plant response rating, Nutsedge, Yellow", "setting": "[7]; [13]", "result": 10}, {"measurement": "Plant response rating, Nutsedge, Yellow", "setting": "[7]; [14]", "result": 15}, {"measurement": "Plant response rating, Nutsedge, Yellow", "setting": "[7]; [15]", "result": 20}, {"measurement": "Plant response rating, Nutsedge, Yellow", "setting": "[7]; [16]", "result": 0}, {"measurement": "Plant response rating, Nutsedge, Yellow", "setting": "[7]; [17]", "result": 0}, {"measurement": "Plant response rating, Nutsedge, Yellow", "setting": "[7]; [18]", "result": 5}, {"measurement": "Plant response rating, Nutsedge, Yellow", "setting": "[7]; [19]", "result": 10}, {"measurement": "Plant response rating, Soybean", "setting": "[8]; [12]", "result": 45}, {"measurement": "Plant response rating, Soybean", "setting": "[8]; [13]", "result": 50}, {"measurement": "Plant response rating, Soybean", "setting": "[8]; [14]", "result": 65}, {"measurement": "Plant response rating, Soybean", "setting": "[8]; [15]", "result": 70}, {"measurement": "Plant response rating, Soybean", "setting": "[8]; [16]", "result": 10}, {"measurement": "Plant response rating, Soybean", "setting": "[8]; [17]", "result": 15}, {"measurement": "Plant response rating, Soybean", "setting": "[8]; [18]", "result": 30}, {"measurement": "Plant response rating, Soybean", "setting": "[8]; [19]", "result": 35}, {"measurement": "Corn plant response rating (crop injury, 0 = no effect, 100 = complete kill) at 125 g/ha", "setting": "[9]; post-emergence, Postemergence, 0 to 100 scale, 0 is no effect, 100 is complete control", "result": 70, "unit": "%"}, {"measurement": "plant injury at 500 g/ha", "setting": "[9]; post-emergence, Postemergence, 500 g ai/ha, 0 to 100 scale, 0 is no effect, 100 is complete control, read-out: Corn plant response rating", "result": 80, "unit": "%"}, {"measurement": "Corn plant response rating (crop injury, 0 = no effect, 100 = complete kill) at 125 g/ha", "setting": "[9]; pre-emergence, Preemergence, 0 to 100 scale where 0 is no effect and 100 is complete control", "result": 30, "unit": "%"}, {"measurement": "Corn plant response rating (crop injury, 0 = no effect, 100 = complete kill) at 500 g/ha", "setting": "[9]; pre-emergence, Preemergence, 500 g ai/ha, 0 to 100 scale (0 no effect, 100 complete control)", "result": 50, "unit": "%"}, {"measurement": "Plant response rating, Johnsongrass", "setting": "[10]; [12]", "result": 80}, {"measurement": "Plant response rating, Johnsongrass", "setting": "[10]; [13]", "result": 90}, {"measurement": "Plant response rating, Johnsongrass", "setting": "[10]; [14]", "result": 90}, {"measurement": "Plant response rating, Johnsongrass", "setting": "[10]; [15]", "result": 95}, {"measurement": "Plant response rating, Johnsongrass", "setting": "[10]; [16]", "result": 98}, {"measurement": "Plant response rating, Johnsongrass", "setting": "[10]; [17]", "result": 100}, {"measurement": "Plant response rating, Johnsongrass", "setting": "[10]; [19]", "result": 100}, {"measurement": "plant injury at 125 g/ha", "setting": "[11]; post-emergence, Postemergence, 0 to 100 scale, 0 is no effect, 100 is complete control, read-out: Plant response rating, Wheat", "result": 50, "unit": "%"}, {"measurement": "plant injury at 500 g/ha", "setting": "[11]; post-emergence, Postemergence, 0 to 100 scale, 0 is no effect, 100 is complete control, read-out: Wheat plant response rating", "result": 70, "unit": "%"}, {"measurement": "plant injury at 125 g/ha", "setting": "[11]; pre-emergence, Preemergence, 0 to 100 scale where 0 is no effect and 100 is complete control, read-out: Plant response rating, Wheat", "result": 50, "unit": "%"}, {"measurement": "plant injury at 500 g/ha", "setting": "[11]; pre-emergence, Preemergence, 0 to 100 scale (0 no effect, 100 complete control), read-out: Plant response rating, Wheat", "result": 70, "unit": "%"}]}]}
